Assay results taken from US11993573B2, “Chromane-substituted, tetrahydroquinoline-substituted and thiochromane-substituted heteroarotinoids as anti-cancer agents” (THE BOARD OF REGENTS FOR OKLAHOMA STATE UNIVERSITY, priority 2018, dated 2024).
Like-named read-outs stand apart in the source and are kept apart here.

Experiments:
[1] = test system: human ovarian cancer cell line A2780; experiment: Growth inhibition assay (CellTiter 96 Non-Rad Cell Proliferation Assay); format: cell-based; conditions: for IC50 / Emax: Homo sapiens; for efficacy compared with SHetA2 / IC50 compared with SHetA2: comparison in words; for IC50 compared with SHetA2: 'exceeded' = lower IC50 in Table 1
Description: To illustrate the general activity of the compounds inhibiting growth of human […] ovarian cancer cells, selected compounds were synthesized and evaluated. The compounds were dissolved in DMSO at a concentration of 0.01 M. The human ovarian cancer cell line A2780 was plated in 96-well tissue culture dishes at a concentration of 3000 cells per well in RPMI medium supplemented with 10% fetal bovine serum and a mixture of antibiotics and antimycotics. The next day, the cultures were treated in triplicate with compound concentrations ranging from 2 μM to 8 μM increments. For compound 12, additional experiments were performed with concentrations of 10 μM and a series of two-fold dilutions to 156 nM. Control cultures were treated with DMSO solvent only. After 72 h of incubation, the […] 96® Non-Rad Cell Proliferation Assay (Promega) was used to quantify the remaining metabolically living cells. After subtracting blank values, the optical density (OD) readouts of the assay for the treated cultures were normalized with the average OD of the control cultures. For each compound, the experiment was repeated at least once, resulting in a minimum of 6 dose-response curves. For SHetA2, 24 response curves were available for statistical fitting parameters. A custom program was written in GNU Octave, a free software compatible with Matlab, to fit the dose-response curves with a four-parameter sigmoid function, extracting the IC50 and efficacy (the maximal % growth inhibition) parameters.
To illustrate the useful biological activity of these chroman-substituted and tetrahydroquinoline-substituted heteroarotinoids, the compounds were screened against human […] ovarian cancer cells.

[2] = A2780, 72 h, Table 1, chroman-containing series
[3] = A2780, 72 h, Table 1, maximal % growth inhibition, A2780, 72 h, read-out: Efficacy
[4] = A2780, 72 h, Table 2, tetrahydroquinoline-containing members
[5] = A2780, 72 h, Table 2, maximal % growth inhibition, A2780, 72 h, read-out: Efficacy
[6] = A2780, Table 3, 14 series (thiochroman), A2780
[7] = A2780, Table 3, 14 series, A2780, read-out: % Efficacy

Row | SMILES | IC50 [1, 2] [µM] | melting point [°C] | Emax [1, 3] [%] | further results
1 | CC1(C)CC(C)(C)c2cc(NC(=S)Nc3ccc(C(F)(F)F)cc3)ccc2O1 [Compound 2c, 1-(2,2,4,4-Tetramethylchroman-6-yl)-3-(4-(trifluoromethyl)phenyl)thiourea] | 4.7 | 166 to 168 | 22 | –
2 | CC1(C)CC(C)(C)c2cc(NC(=S)Nc3ccc(S(N)(=O)=O)cc3)ccc2O1 [Compound 2d, 4-(3-(2,2,4,4-Tetramethylchroman-6-yl)thioureido)benzenesulfonamide] | – | 186 to 187 | – | –
3 | CC1(C)CC(C)(C)c2cc(NC(=O)Nc3ccc(C(F)(F)F)cc3)ccc2O1 [Compound 3a, 1-(2,2,4,4-Tetramethylchroman-6-yl)-3-(4-(trifluoromethyl)phenyl)urea] | 4.1 | 245 to 246 | 79 | –
4 | CC1(C)CC(C)(C)c2cc(NC(=O)Nc3ccc(C#N)cc3)ccc2O1 [Compound 3b, 1-(4-Cyanophenyl)-3-(2,2,4,4-tetramethylchroman-6-yl)urea] | – | 225 to 226 | – | efficacy compared with SHetA2 ([1]; A2780): exceeded the efficacy of SHetA2
5 | CC1(C)CC(C)(C)c2cc(NC(=O)Nc3ccc(OC(F)(F)F)cc3)ccc2O1 [Compound 3c, 1-(2,2,4,4-Tetramethylchroman-6-yl)-3-(4-(trifluoromethoxy)phenyl)urea] | 3.6 | 219 to 221 | 88.4 | efficacy compared with SHetA2 ([1]; A2780): exceeded the efficacy of SHetA2
6 | CC1(C)CCOc2ccc(NC(=S)Nc3ccc(C(F)(F)F)cc3)cc21 [Compound 4b, 1-(4,4-Dimethylchroman-6-yl)-3-(4-(trifluoromethyl)phenyl)thiourea] | 5.5 | 147 to 149 | 28 | –
7 | CC1(C)CCOc2ccc(NC(=S)Nc3ccc(OC(F)(F)F)cc3)cc21 [Compound 4c, 1-(4,4-Dimethylchroman-6-yl)-3-(4-(trifluoromethoxy)phenyl)thiourea] | 4.3 | 153 to 154 | 16 | –
8 | CC1(C)CCOc2ccc(NC(=O)Nc3ccc(OC(F)(F)F)cc3)cc21 [Compound 5c, 1-(4,4-Dimethylchroman-6-yl)-3-(4-(trifluoromethoxy)phenyl)urea] | 3.5 | 230 to 231 | 36 | –
9 | CCC1(CC)CC(C)(C)c2cc(NC(=O)Nc3ccc(C(F)(F)F)cc3)ccc2O1 [Compound 6c, 1-(2,2-Diethyl-4,4-dimethylchroman-6-yl)-3-(4-(trifluoromethyl)phenyl)urea] | 2.45 | 208 to 210 | 92.4 | efficacy compared with SHetA2 ([1]; A2780): exceeded the efficacy of SHetA2; IC50 compared with SHetA2 ([1]; A2780): exceeded
10 | CCC1(CC)CC(C)(C)Oc2ccc(NC(=S)Nc3ccc(C(F)(F)F)cc3)cc21 [Compound 7b, 1-(4,4-Diethyl-2,2-dimethylchroman-6-yl)-3-(4-(trifluoromethyl)phenyl)thiourea] | 4.7 | 155 to 156 | 11.8 | –
11 | CCC1(CC)CC(C)(C)Oc2ccc(NC(=O)Nc3ccc(C(F)(F)F)cc3)cc21 [Compound 7d, 1-(4,4-Diethyl-2,2-dimethylchroman-6-yl)-3-(4-(trifluoromethyl)phenyl)urea] | 2.43 | 225 to 226 | 93.3 | efficacy compared with SHetA2 ([1]; A2780): exceeded the efficacy of SHetA2; IC50 compared with SHetA2 ([1]; A2780): exceeded
12 | CC1(C)CC(C)(C)c2cc(NC(=S)NCc3ccc(O)cc3)ccc2S1 [Compound 14p, 1-(4-Hydroxybenzyl)-3-(2,2,4,4-tetramethylthiochroman-6-yl)thiourea] | – | – | – | IC50 [1, 6]: 3.23 ± 0.49 µM; Emax [1, 7]: 56.8 ± 3.3%
13 | CC1(C)CC(C)(C)c2cc(NC(=S)NNc3ccccc3)ccc2S1 [Compound 14q, 2-Phenyl-N-(2,2,4,4-tetramethylthiochroman-6-yl)hydrazine-1-carbothioamide] | – | – | – | IC50 [1, 6]: 7.03 ± 0.31 µM; Emax [1, 7]: 63.6 ± 3.7%
14 | CC1(C)CC(C)(C)c2cc(NC(=S)NNC(=O)c3ccccc3)ccc2S1 [Compound 14r, 2-Benzoyl-N-(2,2,4,4-tetramethylthiochroman-6-yl)hydrazine-1-carbothioamide] | – | – | – | IC50 [1, 6]: 0.82 ± 0.21 µM; Emax [1, 7]: 67.9 ± 2.6%
15 | CC1(C)CC(C)(C)c2cc(NC(=S)NNC(=O)c3ccc([N+](=O)[O-])cc3)ccc2S1 [Compound 14s, 2-(4-Nitrobenzoyl)-N-(2,2,4,4-tetramethylthiochroman-6-yl)hydrazine-1-carbothioamide] | – | – | – | IC50 [1, 6]: 3.15 ± 0.19 µM; Emax [1, 7]: 43.3 ± 2.9%
16 | CC1(C)CC(C)(C)c2cc(NC(=S)NNC(=O)c3ccc(OC(F)(F)F)cc3)ccc2S1 [Compound 14t, N-(2,2,4,4-Tetramethylthiochroman-6-yl)-2-(4-(trifluoromethoxy)benzoyl)hydrazine-1-carbothioamide] | – | – | – | IC50 [1, 6]: 3.6 ± 0.18 µM; Emax [1, 7]: 57.4 ± 0.4%
17 | CC1(C)CC(C)(C)c2cc(NC(=S)NNC(=O)c3cc(C(F)(F)F)cc(C(F)(F)F)c3)ccc2S1 [Compound 14u, 2-(3,5-Bis(trifluoromethyl)benzoyl)-N-(2,2,4,4-tetramethylthiochroman-6-yl)hydrazine-1-carbothioamide] | – | – | – | IC50 [1, 6]: 4 ± 0.12 µM; Emax [1, 7]: 61.4 ± 2.9%
18 | CC1(C)CCSc2ccc(NC(=S)Nc3ccc([N+](=O)[O-])cc3)cc21 [Compound 14v, 1-(4,4-dimethyl-6-yl)-3-(4-nitrophenyl)thiourea] | – | – | – | IC50 [1, 6]: 4.01 ± 0.19 µM; Emax [1, 7]: 93.5 ± 1.7%

More lines, main results first:

Row | IC50 [1, 2] [µM] | melting point [°C] | SMILES | Emax [1, 3] [%] | further results
19 | 2 | 165 to 166 | CCC1(CC)CC(CC)(CC)c2cc(NC(=O)Nc3ccc(C(F)(F)F)cc3)ccc2O1 [Compound 8c, 1-(2,2,4,4-Tetraethylchroman-6-yl)-3-(4-(trifluoromethyl)phenyl)urea] | 86.2 | IC50 compared with SHetA2 ([1]; A2780): exceeded
20 | 3 | 180 to 181 | CCC1(CC)CC(CC)(CC)c2cc(NC(=O)Nc3ccc(OC(F)(F)F)cc3)ccc2O1 [Compound 8d, 1-(2,2,4,4-Tetraethylchroman-6-yl)-3-(4-(trifluoromethoxy)phenyl)urea] | 67 | IC50 compared with SHetA2 ([1]; A2780): exceeded
21 | – | 219 to 220 | CC1(C)CCNc2ccc(NC(=O)Nc3ccc([N+](=O)[O-])cc3)cc21 [Compound 9a, 1-(4,4-Dimethyl-1,2,3,4-tetrahydroquinolin-6-yl)-3-(4-nitrophenyl)urea] | – | IC50 [1, 4]: 6.9 µM; Emax [1, 5]: 17.1%
22 | – | 150 to 152 | CC1(C)CCNc2ccc(NC(=S)Nc3ccc([N+](=O)[O-])cc3)cc21 [Compound 9b, 1-(4,4-Dimethyl-1,2,3,4-tetrahydroquinolin-6-yl)-3-(4-nitrophenyl)thiourea] | – | IC50 [1, 4]: 7.1 µM; Emax [1, 5]: 17.8%
23 | – | 104 to 105 | CC1(C)CCNc2ccc(NC(=S)Nc3ccc(C(F)(F)F)cc3)cc21 [Compound 9c, 1-(4,4-Dimethyl-1,2,3,4-tetrahydroquinolin-6-yl)-3-(4-(trifluoromethyl)phenyl)thiourea] | – | IC50 [1, 4]: 6 µM; Emax [1, 5]: 42%
24 | – | 69 to 71 | CC1(C)CCNc2ccc(NC(=S)Nc3ccc(OC(F)(F)F)cc3)cc21 [Compound 9d, 1-(4,4-Dimethyl-1,2,3,4-tetrahydroquinolin-6-yl)-3-(4-(trifluoromethoxy)phenyl)thiourea] | – | IC50 [1, 4]: 7.1 µM; Emax [1, 5]: 24%
25 | – | 200 to 201 | CN1c2ccc(NC(=O)Nc3ccc([N+](=O)[O-])cc3)cc2C(C)(C)C(=O)C1(C)C [Compound 11a, 1-(4-Nitrophenyl)-3-(1,2,2,4,4-pentamethyl-3-oxo-1,2,3,4-tetrahydroquinolin-6-yl)urea] | – | IC50 [1, 4]: 3.8 µM; Emax [1, 5]: 94.8%
26 | – | 145 to 147 | CN1c2ccc(NC(=S)Nc3ccc([N+](=O)[O-])cc3)cc2C(C)(C)C(=O)C1(C)C [Compound 11b, 1-(4-Nitrophenyl)-3-(1,2,2,4,4-pentamethyl-3-oxo-1,2,3,4-tetrahydroquinolin-6-yl)thiourea] | – | IC50 [1, 4]: 4.4 µM; Emax [1, 5]: 91.4%
27 | – | 198 to 199 | CN1c2ccc(NC(=O)Nc3ccc(C(F)(F)F)cc3)cc2C(C)(C)C(=O)C1(C)C [Compound 11c, 1-(1,2,2,4,4-Pentamethyl-3-oxo-1,2,3,4-tetrahydroquinolin-6-yl)-3-(4-(trifluoromethyl)phenyl)urea] | – | IC50 [1, 4]: 2.58 µM; Emax [1, 5]: 90.1%
28 | – | 191 to 192 | CN1c2ccc(NC(=O)Nc3ccc(OC(F)(F)F)cc3)cc2C(C)(C)C(=O)C1(C)C [Compound 11e, 1-(1,2,2,4,4-Pentamethyl-3-oxo-1,2,3,4-tetrahydroquinolin-6-yl)-3-(4-(trifluoromethoxy)phenyl)urea] | – | IC50 [1, 4]: 2.4 µM; Emax [1, 5]: 91.3%
